Data on four molecules can be found in patent US11591323B2, “Muscarinic agonists as non-steroidal and non-opioid analgesics and methods of use thereof” (Barry University, priority 2019, dated 2023).

Read-outs that look alike come from different tables or passages of the source.

Common to all, as to format: cell-based
Holding throughout (set-up): host or cells: CHO cells, stably transfected

The target of one assay is T1, M2 muscarinic receptor (Homo sapiens, UniProt P08172).
T1 sequence (P08172 1-466): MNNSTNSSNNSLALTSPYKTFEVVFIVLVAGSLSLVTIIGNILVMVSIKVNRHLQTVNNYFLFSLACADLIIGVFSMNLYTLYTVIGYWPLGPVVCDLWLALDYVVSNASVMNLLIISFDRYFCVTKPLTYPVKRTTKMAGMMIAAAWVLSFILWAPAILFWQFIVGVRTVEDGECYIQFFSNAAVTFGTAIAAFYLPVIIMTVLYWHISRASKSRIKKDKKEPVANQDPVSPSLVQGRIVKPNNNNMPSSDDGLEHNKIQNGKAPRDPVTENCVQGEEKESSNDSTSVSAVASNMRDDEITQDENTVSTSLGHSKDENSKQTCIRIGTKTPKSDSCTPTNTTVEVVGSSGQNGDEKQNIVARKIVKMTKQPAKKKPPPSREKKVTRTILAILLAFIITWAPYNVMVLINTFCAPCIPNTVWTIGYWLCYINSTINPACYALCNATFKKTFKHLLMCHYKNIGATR
Nature of the assay: stimulation of cAMP, M2 CHO cells (M2Gs). The conditions noted are these: for RAi: Table 8, relative to carbachol; for Δlog(τ/KA): Table 8, to carbachol. The method, then:
(§1) To determine level of cAMP, cells in suspension were pre-incubated for 1 h with 0.4 μM [^3H]adenine, washed, and incubated for 10 min in the presence of isobutylmethylxanthine and 10 μM forskolin. […] Incubation was ended by addition of 0.2 ml of 2.5 M HCl to the samples. Samples were applied to alumina columns (1.5 g of alumina per column), washed with 2 ml ammonium acetate (pH=7.0) and eluted from columns with 4 ml ammonium acetate and measured by liquid scintillation spectrometry. […] The incubation was stopped by addition of 0.5 ml of chloroform methanol HCl mixture (2:1:0.1). After separation of water and organic phases, 0.6 ml of water phase was applied to Dowex columns (1.5 g of Dowex per column), washed by 20 ml of 60 mM ammonium formate/5 mM sodium borate buffer and eluted from columns with 4 ml of 1M ammonium formate/0.1 formic acid buffer and measured by liquid scintillation spectrometry.
(§2) Measurements of the production of cAMP and inositol phosphates: Levels of second messengers cAMP and inositol phosphates were determined in radiochemical chromatography assays as described previously. To determine level of cAMP, cells in suspension were pre-incubated for 1 h with 0.4 μM [^3H]adenine, washed, and incubated for 10 min in the presence of isobutylmethylxanthine and 10 μM forskolin. […] Incubation was ended by addition of 0.2 ml of 2.5 M HCl to the samples. Samples were applied to alumina columns (1.5 g of alumina per column), washed with 2 ml ammonium acetate (pH=7.0) and eluted from columns with 4 ml ammonium acetate and measured by liquid scintillation spectrometry. […] For this purpose, new CHO cell lines stably expressing promiscuous G15 G-protein and M2 or M4 receptor were generated by transfection with pCMV/hygro vector and hygromycin selection. To determine the rate of formation of inositol phosphates IPX, suspended cells were pre-incubated with 0.1 μM [^3H]myo-inositol for 60 min, washed, and incubated with 10 mM LiCl for 15 min. […] The incubation was stopped by addition of 0.5 ml of chloroform methanol HCl mixture (2:1:0.1). After separation of water and organic phases, 0.6 ml of water phase was applied to Dowex columns (1.5 g of Dowex per column), washed by 20 ml of 60 mM ammonium formate/5 mM sodium borate buffer and eluted from columns with 4 ml of 1M ammonium formate/0.1 formic acid buffer and measured by liquid scintillation spectrometry.
(§3) For bi-phasic response, curves were inhibitory and stimulatory phase were fitted separately. Operational Model of Functional Agonism
(§4) [formula] where y is functional response at concentration of tested compound x, EMAX is maximal response of the system, KA is equilibrium dissociation constant and nH is slope factor. Eq. 5 was fitted to data from functional experiments. Eq. 5 was fitted to data by the two-step procedure described earlier. […] In the second step, Eq. 5 with EMAX fixed to the value determined in the first step was fitted to individual experimental data sets. Relative Intrinsic Activity

The target in another assay is T2, M1 muscarinic receptor (Homo sapiens, UniProt P11229).
T2 sequence (P11229 1-460): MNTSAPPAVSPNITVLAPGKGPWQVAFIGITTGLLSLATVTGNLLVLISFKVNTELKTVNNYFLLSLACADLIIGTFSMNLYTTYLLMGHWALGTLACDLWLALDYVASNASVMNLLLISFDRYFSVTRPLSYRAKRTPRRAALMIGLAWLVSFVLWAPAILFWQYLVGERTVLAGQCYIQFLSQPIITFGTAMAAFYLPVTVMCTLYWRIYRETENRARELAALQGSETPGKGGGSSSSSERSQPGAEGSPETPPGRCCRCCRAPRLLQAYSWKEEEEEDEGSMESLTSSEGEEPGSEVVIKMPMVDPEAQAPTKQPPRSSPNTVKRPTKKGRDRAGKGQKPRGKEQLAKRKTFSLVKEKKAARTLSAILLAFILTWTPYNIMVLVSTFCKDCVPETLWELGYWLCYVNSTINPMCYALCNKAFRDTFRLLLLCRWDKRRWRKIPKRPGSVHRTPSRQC
Put plainly: stimulation of cAMP, M1 CHO cells (M1Gs). The method, then: Since activation of phospholipase C (PLC) via M2 and M4 receptors is weak, cells were transferred with G15 G-protein to facilitate coupling.
as §1, §2, §3, §4
Muscarinic receptors are also able to stimulate non-preferential signalling pathways.

The next assay addresses T3, M4 muscarinic receptor (Homo sapiens, UniProt P08173).
T3 sequence (P08173 1-479): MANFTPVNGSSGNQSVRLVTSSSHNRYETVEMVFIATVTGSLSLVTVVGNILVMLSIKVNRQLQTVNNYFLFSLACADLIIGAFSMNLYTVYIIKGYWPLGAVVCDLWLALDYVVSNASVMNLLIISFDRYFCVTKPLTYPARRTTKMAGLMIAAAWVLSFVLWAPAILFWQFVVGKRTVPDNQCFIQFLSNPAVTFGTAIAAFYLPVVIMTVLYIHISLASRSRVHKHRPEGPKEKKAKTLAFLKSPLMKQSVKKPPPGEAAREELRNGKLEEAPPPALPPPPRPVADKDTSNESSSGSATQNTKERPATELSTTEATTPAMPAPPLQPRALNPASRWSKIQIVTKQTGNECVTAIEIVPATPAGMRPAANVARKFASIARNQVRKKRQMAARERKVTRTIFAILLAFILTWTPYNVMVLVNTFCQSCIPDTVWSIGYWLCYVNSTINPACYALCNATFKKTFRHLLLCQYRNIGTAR
Nature of the assay: stimulation of cAMP, M4 CHO cells (M4Gs). The conditions noted are these: for RAi / E′MAX / τ / Δlog(τ/KA): M4Gs (↑cAMP); for RAi: Table 8, relative to carbachol; for E′MAX / τ: Table 8; for Δlog(τ/KA): Table 8, to carbachol. The method, then: as §1, §2, §3, §4

Setting [1] is: M1Gs (↑cAMP), Table 8, relative to carbachol.

As for `C1=CCN(Cc2cccs2)CC1.Cl` [Compound 6A, 1-[(thiophen-2-yl)methyl]-1,2,3,6-tetrahydropyridin-1-ium chloride], the RAi on M2 muscarinic receptor (M2Gs (↑cAMP)), on M1 muscarinic receptor (setting [1]) and on M4 muscarinic receptor was 0 each time.
In the case of `C[N+]1(Cc2cccs2)CC=CCC1.[I-]` (centres unmarked) [Compound 7A, 1-methyl-1-[(thiophen-2-yl)methyl]-1,2,3,6-tetrahydropyridin-1-ium iodide], the RAi at M2 muscarinic receptor (M2Gs (↑cAMP)), on M1 muscarinic receptor (setting [1]) and on M4 muscarinic receptor was 0 in each case.
In the case of `C[N+](C)(C)CCOC(N)=O` [carbachol, reference compound], the “E′MAX” value on M2 muscarinic receptor (M2Gs (↑cAMP), Table 8) amounted to 3.6 ± 0.2 fold increase; on M4 muscarinic receptor, 2.9 ± 0.2 fold increase. The “Δlog(τ/KA)” value at M2 muscarinic receptor (M2Gs (↑cAMP)) and at M4 muscarinic receptor was 0 in each case. The τ on M4 muscarinic receptor was 1.9 ± 0.2.
For `O=C1CCCN1CC#CCN1CCCC1` [oxotremorine, reference compound], on M2 muscarinic receptor, a half-maximal response (EC50) required 1.15 µM and binding was put at a Kd of 3.98 µM. In addition, on M2 muscarinic receptor (M2Gs (↑cAMP), Table 8), the “E′MAX” value is given as 3.1 ± 0.2 fold increase and the τ is 2.3 ± 0.2. Also, at M2 muscarinic receptor (M2Gs (↑cAMP)), the RAi is reported as 2.65 ± 0.018 and the “Δlog(τ/KA)” value is given as −0.42 ± 0.04. For the same molecule, at M1 muscarinic receptor, the response was half-maximal at 11.2 µM (EC50); the “E′MAX” value stood at 1.77 ± 0.08 fold increase; the equilibrium dissociation constant (Kd) (as a rule, the free concentration of one partner at which half of the binding sites on the other are occupied at equilibrium, for simple one-to-one binding) was 15.8 µM; the RAi is 3.91 ± 0.22. Moreover, on M1 muscarinic receptor, the “Δlog(τ/KA)” value is −0.59 ± 0.06 and the τ turned out to be 0.38 ± 0.04. Further, on M4 muscarinic receptor, the EC50 (usually the concentration at which the effect is half-maximal) was 2.75 µM, the Kd is 6.31 µM, the “E′MAX” value turned out to be 2.6 ± 0.2 fold increase and the τ was 1.3 ± 0.1. On M4 muscarinic receptor, the RAi is on record as 3.58 ± 0.31 and the “Δlog(τ/KA)” value is −0.55 ± 0.06.
